Literature values, collected in PMC11975010 (Drug Design, Development and Therapy, 2025).
Read-outs that look alike come from different tables or passages of the source.

Legend:
[1] = poor solubility in water and high permeability
[2] = at 25 °C
[3] = not given; remark: listed apart in the source
[4] = administered as HP-β-CD complex formulation

SMILES: COc1ccc(CN=c2[nH]c(N3CCC[C@H]3CO)ncc2C(=O)NCc2ncccn2)cc1Cl [AVA, Avanafil]
- Biopharmaceutical Classification System class [1]: class II
- Action duration: up to 12 hours

SMILES: CC(O)COC[C@H]1O[C@@H]2O[C@H]3[C@H](O)[C@@H](O)[C@@H](O[C@H]4[C@H](O)[C@@H](O)[C@@H](O[C@H]5[C@H](O)[C@@H](O)[C@@H](O[C@H]6[C@H](O)[C@@H](O)[C@@H](O[C@H]7[C@H](O)[C@@H](O)[C@@H](O[C@H]8[C@H](O)[C@@H](O)[C@@H](O[C@H]1[C@H](O)[C@H]2O)O[C@@H]8COCC(C)O)O[C@@H]7COCC(C)O)O[C@@H]6COCC(C)O)O[C@@H]5COCC(C)O)O[C@@H]4COCC(C)O)O[C@@H]3COCC(C)O (stereo partly drawn) [HP-β-CD, hydroxypropyl-beta-cyclodextrin]
- Aqueous solubility [2]: approximately 600 mg/mL

SMILES: CC[C@@]1(O)C(=O)OCc2c1cc1n(c2=O)Cc2cc3ccccc3nc2-1 [camptothecin]
- Lactone ring hydrolysis ([3]; before stabilization in HP-β-CD): 40%
- Lactone ring hydrolysis ([3]; stabilized in HP-β-CD cavities): 6.7%

SMILES: C[C@@H]1C[C@H]2[C@@H]3CCC4=CC(=O)C=C[C@]4(C)[C@@]3(F)[C@@H](O)C[C@]2(C)[C@@]1(O)C(=O)CO [dexamethasone]
- Clearance [4]: lower clearance
